Source: patent US6355799B1, “Substituted benzene compounds, process for their preparation, and herbicidal and defoliant compositions containing them” (ISK Americas Incorporated, priority 1997, dated 2002)

How the values were obtained:
Type in all cases: in vivo
[1] = tested on: redroot pigweed (Amaranthus retroflexus, AMARE); assay: Pre-emerge test, greenhouse herbicide activity screening; conditions: pre-emerge, rated 14 days after application, 0 = no damage, 100 = complete death
Outline: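 Plants grown in 10 cm pots of sandy loam mix received acetone-dissolved compounds through a moving flat-fan nozzle. Doses ranged from 15 to 1000 g ai/ha. Pre-emerge pots were seeded one day earlier, post-emerge pots 8–21 days earlier. Fourteen days on, each pot was graded 0–100 for damage.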

[2] = tested on: barnyardgrass (Echinochloa crus-galli, ECHCG); assay: as above; conditions: pre-emerge, rated 14 days after application, 0 = no damage, 100 = complete death
Outline: (§1)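 Applied at 15–1000 g ai/ha from acetone in 187 l/ha spray volume. Post-emergence applications included 0.25% v/v non-ionic surfactant and reached plants sown 8–21 days before. Pre-emergence applications were incorporated by surface watering. Efficacy or crop damage was rated on a 0–100 scale after 14 days.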

[3] = tested on: green foxtail (Setaria viridis, SETVI); assay: as above; conditions: pre-emerge, rated 14 days after application, 0 = no damage, 100 = complete death
Outline: as §1

[4] = tested on: ivyleaf morningglory (Ipomoea hederacea, IPOHE); assay: as above; conditions: pre-emerge, rated 14 days after application, 0 = no damage, 100 = complete death
Outline: as §1

[5] = tested on: johnsongrass (Sorghum halepense, SORHA); assay: as above; conditions: pre-emerge, rated 14 days after application, 0 = no damage, 100 = complete death
Outline: as §1

[6] = tested on: lambsquarters (Chenopodium album, CHEAL); assay: as above; conditions: pre-emerge, rated 14 days after application, 0 = no damage, 100 = complete death
Outline: as §1

[7] = tested on: large crabgrass (Digitaria sanguinalis, DIGSA); assay: as above; conditions: pre-emerge, rated 14 days after application, 0 = no damage, 100 = complete death
Outline: as §1

[8] = tested on: sicklepod (Cassia obtusifolia, CASOB); assay: as above; conditions: pre-emerge, rated 14 days after application, 0 = no damage, 100 = complete death
Outline: as §1

[9] = tested on: velvetleaf (Abutilon theophrasti, ABUTH); assay: as above; conditions: pre-emerge, rated 14 days after application, 0 = no damage, 100 = complete death
Outline: as §1

[10] = tested on: field corn (Zea mays L., var. Dekalb 535, CORN); assay: Pre-emerge test, crop safety; conditions: pre-emerge, rated 14 days after application, 0 = no damage, 100 = complete death
Outline: as §1

[11] = tested on: upland rice (Oryza sp., var. Tebonnet, RICE); assay: Pre-emerge test, crop safety; conditions: pre-emerge, rated 14 days after application, 0 = no damage, 100 = complete death
Outline: as §1

[12] = tested on: barnyardgrass (Echinochloa crus-galli, ECHCG); assay: Post-emerge test, greenhouse herbicide activity screening; conditions: phytotoxicity rating 0-100 (0 no damage, 100 complete death), 14 days after application
Outline: (§2)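 Fourteen days after spraying, crop and weed injury was graded visually from 0, no effect, to 100, every plant dead. Test substances were dissolved in acetone and applied at 15–1000 g ai/ha with a flat-fan nozzle. Application was either pre-emergence, one day after sowing, or post-emergence at the 2–3 leaf stage.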

[13] = tested on: common ragweed (Ambrosia artemisizfolia L., AMBEL); assay: as above; conditions: phytotoxicity rating 0-100 (0 no damage, 100 complete death), 14 days after application
Outline: as §2

[14] = tested on: green foxtail (Setaria viridis, SETVI); assay: as above; conditions: phytotoxicity rating 0-100 (0 no damage, 100 complete death), 14 days after application
Outline: as §2

[15] = tested on: ivyleaf morningglory (Ipomoea hederacea, IPOHE); assay: as above; conditions: phytotoxicity rating 0-100 (0 no damage, 100 complete death), 14 days after application
Outline: as §2

[16] = tested on: johnsongrass (Sorghum halepense, SORHA); assay: as above; conditions: phytotoxicity rating 0-100 (0 no damage, 100 complete death), 14 days after application
Outline: as §2

[17] = tested on: lambsquarters (Chenopodium album, CHEAL); assay: as above; conditions: phytotoxicity rating 0-100 (0 no damage, 100 complete death), 14 days after application
Outline: as §2

[18] = tested on: large crabgrass (Digitaria sanguinalis, DIGSA); assay: as above; conditions: phytotoxicity rating 0-100 (0 no damage, 100 complete death), 14 days after application
Outline: as §2

[19] = tested on: redroot pigweed (Amaranthus retroflexus, AMARE); assay: as above; conditions: phytotoxicity rating 0-100 (0 no damage, 100 complete death), 14 days after application
Outline: as §2

[20] = tested on: sicklepod (Cassia obtusifolia, CASOB); assay: as above; conditions: phytotoxicity rating 0-100 (0 no damage, 100 complete death), 14 days after application
Outline: as §2

[21] = tested on: velvetleaf (Abutilon theophrasti, ABUTH); assay: as above; conditions: phytotoxicity rating 0-100 (0 no damage, 100 complete death), 14 days after application
Outline: as §2

[22] = tested on: field corn (Zea mays L., var. Dekalb 535, CORN); assay: Post-emerge test, crop safety; conditions: phytotoxicity rating 0-100 (0 no damage, 100 complete death), 14 days after application
Outline: as §1

[23] = tested on: upland rice (Oryza sp., var. Tebonnet, RICE); assay: Post-emerge test, crop safety; conditions: phytotoxicity rating 0-100 (0 no damage, 100 complete death), 14 days after application
Outline: as §1

COc1c(Cl)cc(F)c(-n2c(=O)cc(C(F)(F)F)n(C)c2=O)c1N=C(Cl)C(Cl)(Cl)Cl [Compound 1-30]
Pre-emerge Herbicidal Activity AMARE (phytotoxicity rating, scale 0-100) ([1]; 63 g ai/ha): 0
Pre-emerge Herbicidal Activity AMARE (phytotoxicity rating, scale 0-100) ([1]; 250 g ai/ha): 60
Pre-emerge Herbicidal Activity ECHCG (phytotoxicity rating, scale 0-100) ([2]; 63 g ai/ha): 0
Pre-emerge Herbicidal Activity ECHCG (phytotoxicity rating, scale 0-100) ([2]; 250 g ai/ha): 0
Pre-emerge Herbicidal Activity SETVI (phytotoxicity rating, scale 0-100) ([3]; 63 g ai/ha): 10
Pre-emerge Herbicidal Activity SETVI (phytotoxicity rating, scale 0-100) ([3]; 250 g ai/ha): 100
Pre-emerge Herbicidal Activity IPOHE (phytotoxicity rating, scale 0-100) ([4]; 63 g ai/ha): 0
Pre-emerge Herbicidal Activity IPOHE (phytotoxicity rating, scale 0-100) ([4]; 250 g ai/ha): 70
Pre-emerge Herbicidal Activity SORHA (phytotoxicity rating, scale 0-100) ([5]; 63 g ai/ha): 0
Pre-emerge Herbicidal Activity SORHA (phytotoxicity rating, scale 0-100) ([5]; 250 g ai/ha): 10
Pre-emerge Herbicidal Activity CHEAL (phytotoxicity rating, scale 0-100) ([6]; 63 g ai/ha): 85
Pre-emerge Herbicidal Activity CHEAL (phytotoxicity rating, scale 0-100) ([6]; 250 g ai/ha): 100
Pre-emerge Herbicidal Activity DIGSA (phytotoxicity rating, scale 0-100) ([7]; 63 g ai/ha): 0
Pre-emerge Herbicidal Activity DIGSA (phytotoxicity rating, scale 0-100) ([7]; 250 g ai/ha): 90
Pre-emerge Herbicidal Activity CASOB (phytotoxicity rating, scale 0-100) ([8]; 63 g ai/ha): 0
Pre-emerge Herbicidal Activity CASOB (phytotoxicity rating, scale 0-100) ([8]; 250 g ai/ha): 70
Pre-emerge Herbicidal Activity ABUTH (phytotoxicity rating, scale 0-100) ([9]; 63 g ai/ha): 50
Pre-emerge Herbicidal Activity ABUTH (phytotoxicity rating, scale 0-100) ([9]; 250 g ai/ha): 100
Pre-emerge crop damage CORN (phytotoxicity rating, scale 0-100) ([10]; 63 g ai/ha): 0
Pre-emerge crop damage CORN (phytotoxicity rating, scale 0-100) ([10]; 250 g ai/ha): 10
Pre-emerge crop damage RICE (phytotoxicity rating, scale 0-100) ([11]; 63 g ai/ha): 10
Pre-emerge crop damage RICE (phytotoxicity rating, scale 0-100) ([11]; 250 g ai/ha): 30
Post-emerge Herbicidal Activity ECHCG ([12]; 63 g ai/ha): 0
Post-emerge Herbicidal Activity ECHCG ([12]; 250 g ai/ha): 0
Post-emerge Herbicidal Activity AMBEL ([13]; 63 g ai/ha): 0
Post-emerge Herbicidal Activity AMBEL ([13]; 250 g ai/ha): 70
Post-emerge Herbicidal Activity SETVI ([14]; 63 g ai/ha): 0
Post-emerge Herbicidal Activity SETVI ([14]; 250 g ai/ha): 0
Post-emerge Herbicidal Activity IPOHE ([15]; 63 g ai/ha): 20
Post-emerge Herbicidal Activity IPOHE ([15]; 250 g ai/ha): 100
Post-emerge Herbicidal Activity SORHA ([16]; 63 g ai/ha): 0
Post-emerge Herbicidal Activity SORHA ([16]; 250 g ai/ha): 0
Post-emerge Herbicidal Activity CHEAL ([17]; 63 g ai/ha): 0
Post-emerge Herbicidal Activity CHEAL ([17]; 250 g ai/ha): 60
Post-emerge Herbicidal Activity DIGSA ([18]; 63 g ai/ha): 0
Post-emerge Herbicidal Activity DIGSA ([18]; 250 g ai/ha): 0
Post-emerge Herbicidal Activity AMARE ([19]; 63 g ai/ha): 10
Post-emerge Herbicidal Activity AMARE ([19]; 250 g ai/ha): 30
Post-emerge Herbicidal Activity CASOB ([20]; 63 g ai/ha): 0
Post-emerge Herbicidal Activity CASOB ([20]; 250 g ai/ha): 30
Post-emerge Herbicidal Activity ABUTH ([21]; 63 g ai/ha): 30
Post-emerge Herbicidal Activity ABUTH ([21]; 250 g ai/ha): 100
Post-emerge Herbicidal Activity CORN (crop damage) ([22]; 63 g ai/ha): 0
Post-emerge Herbicidal Activity CORN (crop damage) ([22]; 250 g ai/ha): 10
Post-emerge Herbicidal Activity RICE (crop damage) ([23]; 63 g ai/ha): 0
Post-emerge Herbicidal Activity RICE (crop damage) ([23]; 250 g ai/ha): 20
